From ChEMBL document CHEMBL1201862, “PubChem BioAssay data set” (2004) come the findings set out here.

Some test systems named below: NCI-H522; HOP-92; OVCAR-8; T47D; K562; Hs-578T; A549; HT-29; SK-MEL-5; MDA-MB-231; A498; HCC 2998; SF-295; DU-145; UACC-62; HCT-116; SF-268; OVCAR-3; HCT-15; BT-549.
Assay in all cases: growth of human tumour cells (NCI), 48 h

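How tested: cells in 96-well plates exposed to compound for 48 hours at five concentrations. GI50 is the concentration that inhibits growth by half.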 Active and inactive are the calls of the source. Rule as the data show it: active = GI50 up to about 1.1 µM and inactive = higher.

Take `NC(=O)C(=O)n1ncc(Cl)c(Cl)c1=O`: the GI50 is 7.73 µM (inactive) with NCI-H522; > 42.3 µM (inactive) in the assay with HOP-92; 24.2 µM (inactive) in the assay with OVCAR-8; > 100 µM (inactive) with T47D; 9.46 µM (inactive) with K562; > 100 µM (inactive) with Hs-578T. The GI50 is > 67.8 µM (inactive) with A549; 27.5 µM (inactive) in the assay on HT-29; 18.3 µM (inactive) in the assay on SK-MEL-5; > 10 µM (inactive) in the assay on MDA-MB-231; > 72.9 µM (inactive) in the assay on A498; 25.8 µM (inactive) in the assay on HCC 2998. In addition, the GI50 was 13.6 µM (inactive) in the assay on SF-295; > 100 µM (inactive) in the assay with DU-145; 31.5 µM (inactive) in the assay with UACC-62; 29.1 µM (inactive) in the assay on HCT-116; 46 µM (inactive) in the assay with SF-268; 32.2 µM (inactive) in the assay on OVCAR-3. In the assay with HCT-15, this molecule yielded a GI50 above 46.9 µM.

In the case of `COC(=O)c1ccc(OCCn2nnc(C(=O)NN)c2C(=O)NN)cc1`, the GI50 in the assay with HOP-92, in the assay with OVCAR-8, in the assay with K562, in the assay with BT-549, in the assay with A549 and in the assay on HT-29 was > 100 µM (inactive) in each case. The GI50 in the assay with SK-MEL-5, in the assay on MDA-MB-231, in the assay with HCC 2998, in the assay on SF-295, in the assay with DU-145 and with HCT-116 was > 100 µM (inactive) in each case. In addition, the GI50 was > 100 µM (inactive) in the assay with OVCAR-3 and above 100 µM in the assay with HCT-15.

Regarding `Cc1c2ccccc2c(C2C3C(=O)N(c4ccc(Br)cc4)C(=O)C3ON2C(C(N)=O)c2ccccc2)c2ccccc12` (configuration not stated), the GI50 with NCI-H522 was 2.79 µM (inactive); with HOP-92 it was 9.4 µM (inactive); with OVCAR-8, 6.78 µM (inactive); in the assay with T47D it was 3.18 µM (inactive); in the assay with K562 it was 4.11 µM (inactive); in the assay on BT-549, 7.29 µM (inactive). The GI50 with A549 is 3.64 µM (inactive); with HT-29, 2.58 µM (inactive); in the assay on SK-MEL-5, 3.1 µM (inactive); in the assay on A498, 2.98 µM (inactive); in the assay on HCC 2998, 12.1 µM (inactive); with SF-295, 6.59 µM (inactive). The GI50 was 6.43 µM (inactive) with DU-145; 9.35 µM (inactive) in the assay on UACC-62; 4.37 µM (inactive) with HCT-116; 9.14 µM (inactive) in the assay on SF-268; 3.01 µM (inactive) in the assay on OVCAR-3; 3.88 µM in the assay with HCT-15.

As for `N#CC(C#N)=CNC(=S)Nc1ccc(S(=O)(=O)Nc2nccs2)cc1`, the GI50 with HOP-92, with OVCAR-8, in the assay with T47D, in the assay with BT-549, in the assay on A549 and with HT-29 was > 100 µM (inactive) throughout. For the same molecule, the GI50 in the assay with SK-MEL-5, in the assay with MDA-MB-231, with A498, with HCC 2998, with SF-295 and in the assay with DU-145 was > 100 µM (inactive) throughout. In addition, the GI50 in the assay with UACC-62 is > 100 µM (inactive); in the assay with HCT-116, > 100 µM (inactive); in the assay with SF-268, > 100 µM (inactive); in the assay on OVCAR-3, > 100 µM (inactive); in the assay with HCT-15, above 100 µM.

`CCC(C)N1CN(c2ccccc2)C2(CCN(CC3COc4ccccc4O3)CC2)C1=O` (configuration not stated): the GI50 in the assay with NCI-H522 is 22.8 µM (inactive); in the assay with OVCAR-8, 26.2 µM (inactive); in the assay on T47D, 16 µM (inactive); in the assay with K562, 16.5 µM (inactive); with BT-549, 14.3 µM (inactive); in the assay on A549, 28.7 µM (inactive). For the same molecule, the GI50 is 13.1 µM (inactive) with HT-29; 14.7 µM (inactive) with SK-MEL-5; > 100 µM (inactive) in the assay on MDA-MB-231; 18.2 µM (inactive) in the assay on HCC 2998; 19 µM (inactive) in the assay on SF-295; 21.6 µM (inactive) in the assay on DU-145. Besides, the GI50 with UACC-62 was 19 µM (inactive); with HCT-116, 15.9 µM (inactive); with SF-268 it was 48 µM (inactive); in the assay with OVCAR-3, 15.7 µM (inactive); in the assay with HCT-15, 19.7 µM.

Turning to `NN/C(=N\S(=O)(=O)c1cc(Cl)c(Oc2ccc([N+](=O)[O-])cc2Cl)c(Cl)c1)Nc1ccc(Cl)cc1`, the GI50 in the assay on HOP-92 was 19.9 µM (inactive); in the assay on OVCAR-8, 24.2 µM (inactive); in the assay with T47D, 19.8 µM (inactive); in the assay on K562, 27 µM (inactive); in the assay on BT-549 it was 18.4 µM (inactive); in the assay on A549 it was 17.9 µM (inactive). Also, the GI50 with HT-29 was 19.1 µM (inactive); in the assay on SK-MEL-5, 16 µM (inactive); in the assay with MDA-MB-231, 18.4 µM (inactive); with A498, 22.8 µM (inactive); in the assay with SF-295, 20.4 µM (inactive); in the assay with DU-145, 19.2 µM (inactive). The GI50 in the assay with UACC-62 was 15.5 µM (inactive); in the assay with HCT-116, 15.7 µM (inactive); in the assay with SF-268 it was 19.5 µM (inactive); in the assay with OVCAR-3, 15.9 µM (inactive); in the assay on HCT-15 it was 19.2 µM.

For `CCOC(=O)c1c(N)sc2c1C(C)(C(=O)OCC)CC2` (configuration not stated), the GI50 was 58.3 µM (inactive) in the assay with HOP-92; > 100 µM (inactive) in the assay with OVCAR-8; > 100 µM (inactive) in the assay on K562; 78.7 µM (inactive) with Hs-578T; > 100 µM (inactive) with BT-549; 63.1 µM (inactive) with A549. Also, the GI50 with HT-29 was > 100 µM (inactive); in the assay on SK-MEL-5, > 100 µM (inactive); in the assay on MDA-MB-231, > 100 µM (inactive); in the assay on A498 it was 18.2 µM (inactive); in the assay on HCC 2998, > 100 µM (inactive); with UACC-62, > 100 µM (inactive). For the same molecule, the GI50 with HCT-116 was 97.5 µM (inactive); in the assay with HCT-15, above 100 µM.

Regarding `COc1ccc(C2OC(c3ccncc3)=NN2C)cc1OC` (configuration not stated), the GI50 in the assay on NCI-H522 is > 100 µM (inactive); in the assay on HOP-92, 48.9 µM (inactive); with OVCAR-8, > 100 µM (inactive); in the assay with T47D it was 67.1 µM (inactive); in the assay on K562, > 100 µM (inactive); in the assay with Hs-578T it was 67 µM (inactive). Moreover, the GI50 with A549 was > 100 µM (inactive); with HT-29, > 100 µM (inactive); with SK-MEL-5, 92.5 µM (inactive); in the assay with MDA-MB-231, 67.6 µM (inactive); in the assay on A498, 33.5 µM (inactive); in the assay on HCC 2998, > 100 µM (inactive). In addition, the GI50 in the assay on SF-295, with DU-145, in the assay on UACC-62, with HCT-116, with SF-268 and with OVCAR-3 was > 100 µM (inactive) each time. This molecule also showed a GI50 in the assay with HCT-15 above 100 µM.

In the case of `C=C(C)[C@@H]1C[C@H]2O[C@](O)(C(=C)CC(=O)/C=C(/C)C[C@@H]3OC(=O)[C@]24O[C@@H]34)[C@H]1O`, the GI50 in the assay on NCI-H522, in the assay with OVCAR-8, in the assay on T47D, with K562, in the assay with BT-549 and in the assay on A549 was > 100 µM (inactive) each time. Besides, the GI50 in the assay on HT-29, with SK-MEL-5, in the assay on MDA-MB-231, in the assay on A498, in the assay with HCC 2998 and with SF-295 was > 100 µM (inactive) each time. Besides, the GI50 in the assay with DU-145 is > 100 µM (inactive); in the assay with UACC-62, > 100 µM (inactive); in the assay on HCT-116 it was > 100 µM (inactive); in the assay with SF-268, > 100 µM (inactive); in the assay on HCT-15 it was above 100 µM.
